Data: patent publication US10583119B2, “Compounds, compositions and methods for making the same” (Signum Biosciences, Inc., priority 2008, dated 2020)
“Also recorded” adds a separate entry of the source.

Key:
[1] = target: T1, protein phosphatase 2A specific methyltransferase (MTase) (Homo sapiens, UniProt Q9UIC8); test: PP2A methylation in 96-well plate format (methyltransferase activity); format: biochemical; conditions: purified PP2A, MTase and [3H]-SAM; read-out: MT (IC50)
T1 construct: His; made in house
T1 sequence (Q9UIC8 whole entry): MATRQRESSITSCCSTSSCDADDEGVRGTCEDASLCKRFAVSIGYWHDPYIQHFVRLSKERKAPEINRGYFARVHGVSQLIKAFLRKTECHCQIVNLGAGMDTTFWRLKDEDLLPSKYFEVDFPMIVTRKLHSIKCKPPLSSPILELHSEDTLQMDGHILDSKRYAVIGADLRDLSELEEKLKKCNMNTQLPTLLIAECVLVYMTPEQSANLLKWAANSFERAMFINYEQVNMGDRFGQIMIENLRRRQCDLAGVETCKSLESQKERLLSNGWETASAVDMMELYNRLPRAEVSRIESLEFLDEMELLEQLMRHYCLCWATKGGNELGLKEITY
Experimental: Purified PP2A, MTase and [^3H]-SAM, were incubated in reaction buffer at 37° C. At the end of the reaction, mixture was added onto the membranes of 96-well filter plate (Multiscreen™, Millipore). The membranes were then pre-wetted with 70% ethanol (50 μL/well) and then subsequently washed with water (2×200 μL/well). The reaction in each well was terminated and the proteins (5 μL-20 μL) were precipitated by adding 25% ice-cold TCA. The plate was kept on ice for 30 minutes to ensure completion of protein precipitation. Excess of the free SAM was then removed by washing with 5% cold TCA ([…]) and 70% cold ethanol (2×100 μL/well). Membranes were air-dried, radioactivity in each well was counted by TopCount^NXT scintillation counter (Packard) with 25 μL/well of Microsinct™ 20 (PerkinElmer).

[2] = test system: Swiss-Webster (wild-type) mice; test: Glucose metabolism (intraperitoneal glucose tolerance test, body weight) in wild-type mice; format: in vivo; conditions: 0.1% in diet for 128 days
Text: The glucose tolerance test (GTT) measures the body's ability to metabolize glucose. It is currently used to diagnose patients with prediabetes disposition and diabetes.
Twenty (20) Swiss-Webster (wild-type) mice were acclimated for 2 weeks. The mice were ear notched for identification and housed in individually and negatively ventilated polycarbonate cages with HEPA filtered air at a density of 6 mice per cage. Bed-o-cob corn cob bedding was used and cages were changed every two weeks. The animal room was lighted entirely with artificial fluorescent lighting, with a controlled 12 h light/dark cycle (7 am to 7 pm light). The normal temperature and relative humidity ranged in the animal rooms are 22±4° C. and 50±15%, respectively. The animal rooms were set to have 15 air exchanges per hour. Filtered tap water, acidified to a pH of 2.8 to 3.2. LabDiet D10001 was provided ad libitum, and leftover food was removed once per week.
Following acclimation, mice are assigned to groups according to diet. • 1. Control Diet (D10001) • 2. Compound I-63 ((D10001 with 0.1% 1-63)
The mice were maintained on the diet for 128 days. […] Mice were weighed and glucose dose calculated for […] body weight. […] Blood glucose levels were measured with the OneTouch UltraSmart electronic glucometer at time point O with tail vein blood. […] Blood glucose was measured at 15, 30, 45, 90 and 120 minutes after glucose injection.

phosphorylated Tau = test: Phosphorylated tau in vivo, weekly up to 4 weeks (PHF1 Western blot of brain); parameters: species or system mice; conditions: 0.1% by weight in feed, mouse brain
Experimental: Swiss Webster mice ([…]) were fed ad libitum, either standard rodent chow (Control), or rodent chow formulated with 0.1 g Compound I-63 per 100 g chow (0.1% Compound I-63); water was changed weekly. Mice were housed at 23° C., on a 12 hour light and dark cycle, with 6 mice per cage. At weekly intervals up to 4 weeks, three and six mice from the Control and 0.1% Compound I-63 groups respectively were sacrificed by cervical dislocation, brains removed, snap-frozen in liquid nitrogen, and were stored at −80° C. Brains were homogenized in 350 pi of buffer containing 20 mM MOPS-Na, pH 7.2, 1 mM EDTA/DTT, 0.5 mg/L of aprotinin, leupeptin and pepstatin, 100 nM okadaic acid, and clarified by centrifugation (14,000 rpm, 10 min, 4° C.). Supernatant protein concentrations were measured by the Bradford method, 4 volumes of the supernatant and 1 volume of 5×SDS sample buffer were mixed and boiled for 2 minutes. 40 pg of the boiled homogenate were loaded on 12% polyacrylamide gels, and transferred to nitrocellulose membranes. Membranes are blocked in 5% BSA+TBST for 1 hour at room temperature, and incubated overnight at 4° C. with the following primary antibodies at the indicated dilutions: PHF1 mAb (recognizes phospho-Serine 396/404) at 1:2000, Tau-5 (Millipore; pan-tau mAb) at 1:10,000, and anti-GAPDH (Sigma mAb; used as loading control) at 1:50,000. Protein bands were detected with the ECL Plus reagent (GE Healthcare) and blots were exposed to Kodak XOmat film. Densitometric analyses were performed with ImageJ software. For relative phospho-tau levels of the Compound I-63-treated animals, the ratio of GAPDH-normalized phospho-tau to GAPDH-normalized total tau was further normalized to the corresponding ratios for the control group of mice. Error bars represent the standard error of the means.

JNPL3 transgenic mice = test: Motor functions of JNPL3 transgenic mice (composite neuroscore); format: in vivo; conditions: 0.1% diet
Experimental: The JNPL3 transgenic mouse line that carries the transgene for the human P301 L mutation of the microtubule-associated protein tau gene (MAPT) was used in this experiment (Lewis et al., 2000). 9-12 weeks old homozygous JNPL3 males (Laconic Farms, Hudson, N.Y.) were housed under standard conditions (temperature 22±2° C.; relative humidity 50±10%; 12 h light/12 h dark cycle) and allowed to acclimatize for 2 weeks. Following acclimatization, two groups of animals (6 animals per group) are changed to control diet (Research Diets; New Brunswick, N.J.) or purified 0.1% Compound I-63 formulated diet. The composite neuroscore (NS) was used as the scoring system to measure the following tasks: (1) forelimb flexion response during suspension by the tail, (2) righting and postural reflexes, and (3) prehensile traction test (Yoshiyama et al., 2005; Korenova et al., 2009). The neurological and motor examination included the basic reflex response by special attention to the assessment of the hind-limb escape extension reflex, the righting and postural reflexes and the prehensile traction test where the animal is allowed to grasp with its forepaws a horizontal cotton string (1 mm in diameter) suspended 70 cm above a padded surface. The scoring conditions were graded as follows:
2—Animal maintained forelimbs in scissored, clasped or dystonic position
Postural and Righting Reflex:
0—Animal could right when placed supine
1—Animal righting slowed (>ls)
Prehensile Traction Test:
0—Animal could complete test with at least 3 paws and tail within 2 min
1—Animal could hold on to string without falling within 2 min
2—Animal fell before 2 min without completion
3—Animal was unable to perform test
Each animal was scored using a scaling system ranging from 0-12 (normal), 13-20 (mild or early), 21-23 (moderate) and 24-30 (severe) to reflect serious impairment of neuromuscular functionality and muscular weakness. […]
Motor test scores vs. weeks of mice fed control diet (closed circles) and 0.1% Compound I-63 formulated diet (open circles). […]

IC50 [1]: 10 to 100 µM
SMILES: CCCCCCCCCCCCCCCCCCCC(=O)NCCc1c[nH]c2ccc(O)cc12 [Compound I-63, N-(2-(5-hydroxy-1H-indol-3-yl)ethyl)icosanamide]
glucose tolerance in intraperitoneal glucose tolerance test [2]: consistently lower glucose levels; also recorded: improved glucose tolerance
incremental area under the curve of blood glucose levels in the glucose tolerance test compared to control diet [2]: < 10%
reduction in phosphorylation of tau compared to control (phosphorylated Tau; four weeks): ≥ 70%
reduction in phosphorylation of tau compared to control (phosphorylated Tau; three weeks): > 50%
reduction in phosphorylation of tau compared to control (phosphorylated Tau; two weeks): < 40%
mean motor test scores less than mice on control diet (JNPL3 transgenic mice; after eleven weeks): 75%
protection from developing motor dysfunction (JNPL3 transgenic mice; after ten weeks): protection of JNPL3 transgenic mice from developing motor dysfunction
mean motor test scores less than mice on control diet (JNPL3 transgenic mice; after twelve weeks): 75%
